Consider nine compounds from article PMC11054269, “Synergistic Biomedical Potential and Molecular Docking Analyses of Coumarin–Triazole Hybrids as Tyrosinase Inhibitors: Design, Synthesis, In Vitro Profiling, and In Silico Studies” (Pharmaceuticals, 2024).

A word on the IC50: it is the midpoint of a concentration-inhibition curve. One may read the melting point as the temperature of the solid-liquid transition.

Values joined by “and” are separate entries in the source; they are usually repeats but may differ in a detail not shown here. Equal entries are not always repeated. Where two headings read alike, the source gives them in different places.

For one data set, the target named is tyrosinase. The data set can be described thus: spectrophotometric tyrosinase inhibition assay with L-DOPA as substrate. The format is biochemical, Bacillus subtilis NCTC 10400. Particulars: for %Age Inhibition: test concentration not given. On the procedure:
The synthesized coumarin–triazole hybrids were subjected to spectrophotometric assay for tyrosinase by employing […]. The tyrosine enzyme was extracted from Bacillus subtilis NCTC 10400. The anti-tyrosinase potential of all the coumarin–triazole hybrids was screened by using L-DOPA (levodopa) as the substrate. All the coumarin derivatives were dissolved in DMSO. […] The coumarin derivatives along with the tyrosine enzyme (0.5 mg/mL) were pre-incubated for 10 min in buffer at 25 °C. Pre-incubation of tyrosinase and coumarin derivative was followed by the addition of levodopa (0.5 mM), and the reaction was monitored by absorbance measurement at 475 nm. The IC50 values were calculated by interpolation of the dose–response curves. The following formula was applied to calculate the percentage inhibition of tyrosinase:%age Inhibition = (B − S/B) × 100 where S and B are the absorbance values for the sample and blank, respectively.

The mark [1] stands for this setting: L-DOPA 0.5 mM, pH 6.8, 25 °C, means ± SEs (n = 3), read-out: IC50.
The mark [2] stands for this setting: L-DOPA substrate, unit inferred, read-out: IC50 (unit inferred).

For the compound `COc1ccc(-n2c(SCC(=O)Oc3ccc4c(C)cc(=O)oc4c3)nnc2-c2cc3cccc(OC)c3o2)cc1` [Compound 17c, 4-Methyl-2-oxo-2H-chromen-7-yl-2-((5-(7-methoxybenzofuran-2-yl)-4-(4-methoxyphenyl)-4H-1,2,4-triazol-3-yl)thio)acetate], the melting point worked out at 137 °C. In addition, the concentration for half-maximal inhibition (IC50) at tyrosinase (setting [1]) was found to be 13 ± 0.32 µM. For the same compound, the “%Age Inhibition” value with tyrosinase (L-DOPA 0.5 mM, pH 6.8, 25 °C) is reported as 5.11 ± 0.15%. Moreover, the IC50 on tyrosinase (setting [2]) worked out at 13 ± 0.32 µM.

In the case of `Cc1cc(=O)oc2cc(OC(=O)CSc3nnc(-c4cc5cc(Cl)ccc5o4)n3-c3ccccc3)ccc12` [Compound 17f, 4-Methyl-2-oxo-2H-chromen-7-yl-2-((5-(5-chlorobenzofuran-2-yl)-4-phenyl-4H-1,2,4-triazol-3-yl)thio)acetate], the melting point worked out at 226 °C. Besides, the IC50 at tyrosinase (setting [1]) was 3.15 µM and 3.14 µM. The “%Age Inhibition” value in the data set on tyrosinase (L-DOPA 0.5 mM, pH 6.8, 25 °C) was 36.134 ± 0.21% and 36.13 ± 0.21%. The 50% inhibitory concentration (IC50) on tyrosinase (setting [2]) stood at 3.15 ± 0.23 µM.

Take `COc1ccc(-n2c(SCC(=O)Oc3ccc4c(C)cc(=O)oc4c3)nnc2-c2cc3cc(Cl)ccc3o2)cc1` [Compound 17g, 4-Methyl-2-oxo-2H-chromen-7-yl2-((5-(5-chlorobenzofuran-2-yl)-4-(4-methoxyphenyl)-4H-1,2,4-triazol-3-yl)thio)acetate]: the melting point was 200 °C. For the same compound, on tyrosinase (setting [1]), the half-maximal inhibitory concentration (IC50) worked out at 3.98 µM. Further, the “%Age Inhibition” value in the data set with tyrosinase (L-DOPA 0.5 mM, pH 6.8, 25 °C) is 31.0609 ± 0.19% and 31.060 ± 0.19%. For the same compound, the 50% inhibitory concentration (IC50) at tyrosinase (setting [2]) was 3.98 ± 0.12 µM.

For `Cc1cc(=O)oc2cc(OC(=O)CSc3nnc(-c4cc5ccccc5o4)n3-c3ccccc3)ccc12` [Compound 17a, 4-Methyl-2-oxo-2H-chromen-7-yl-2-((5-(benzofuran-2-yl)-4-phenyl-4H-1,2,4-triazol-3-yl)thio)acetate], the melting point was 152 °C. The half-inhibitory concentration (IC50) at tyrosinase (setting [1]) is 8.13 ± 0.13 µM. In addition, in the data set with tyrosinase (L-DOPA 0.5 mM, pH 6.8, 25 °C), the “%Age Inhibition” value was 12.023 ± 0.21% and 12.02 ± 0.21%. For the same compound, the IC50 at tyrosinase (setting [2]) is 8.14 ± 0.13 µM.

As to `Cc1cc(=O)oc2cc(OC(=O)CSc3nnc(-c4cc5cc(Br)ccc5o4)n3-c3ccccc3)ccc12` [Compound 17d, 4-Methyl-2-oxo-2H-chromen-7-yl-2-((5-(5-bromobenzofuran-2-yl)-4-phenyl-4H-1,2,4-triazol-3-yl)thio)acetate], the melting point is 232 °C. Moreover, on tyrosinase (setting [1]), the IC50 was 5.89 ± 0.09 µM. In the data set with tyrosinase (L-DOPA 0.5 mM, pH 6.8, 25 °C), the “%Age Inhibition” value is 23.097 ± 0.13% and 23.09 ± 0.13%. The half-maximal inhibitory concentration (IC50) at tyrosinase (setting [2]) is 5.89 ± 0.09 µM.

For the compound `Cc1cc(=O)oc2cc(OC(=O)CSc3nnc(-c4cc5c(ccc6ccccc65)o4)n3-c3ccccc3)ccc12` [Compound 17h, 4-Methyl-2-oxo-2H-chromen-7-yl-2-((5-(naphtho[2,1-b]furan-2-yl)-4-phenyl-4H-1,2,4-triazol-3-yl)thio)acetate], at tyrosinase (setting [1]), the 50% inhibitory concentration (IC50) is 5.13 ± 0.05 µM. In addition, the “%Age Inhibition” value with tyrosinase (L-DOPA 0.5 mM, pH 6.8, 25 °C) worked out at 30.62 ± 0.33%.

In the case of `COc1ccc(-n2c(SCC(=O)Oc3ccc4c(C)cc(=O)oc4c3)nnc2-c2cc3cc(Br)ccc3o2)cc1` [Compound 17e, 4-Methyl-2-oxo-2H-chromen-7-yl-2-((5-(5-bromobenzofuran-2-yl)-4-(4-methoxyphenyl)-4H-1,2,4-triazol-3-yl)thio)acetate], the melting point turned out to be 220 °C. In addition, the IC50 on tyrosinase (setting [1]) was 0.339 µM and 0.33 µM. Besides, the “%Age Inhibition” value with tyrosinase (L-DOPA 0.5 mM, pH 6.8, 25 °C) stood at 30.85 ± 0.15%. Moreover, the IC50 at tyrosinase (setting [2]) stood at 0.339 ± 0.08 µM.

`COc1cccc2cc(-c3nnc(SCC(=O)Oc4ccc5c(C)cc(=O)oc5c4)n3-c3ccccc3)oc12` [Compound 17b, 4-Methyl-2-oxo-2H-chromen-7-yl-2-((5-(7-methoxybenzofuran-2-yl)-4-phenyl-4H-1,2,4-triazol-3-yl)thio)acetate] yielded a melting point of 140 °C. Also, the IC50 at tyrosinase (setting [1]) was determined as 14.1 ± 0.17 µM. Also, the “%Age Inhibition” value in the data set with tyrosinase (L-DOPA 0.5 mM, pH 6.8, 25 °C) was 6.3009 ± 0.14% and 6.30 ± 0.14%. The 50% inhibitory concentration (IC50) on tyrosinase (setting [2]) is 14.1 ± 0.17 µM.

Turning to `O=c1cc(CO)occ1O` [Kojic acid, reference compound], in the data set on tyrosinase (L-DOPA 0.5 mM, pH 6.8, 25 °C), the “%Age Inhibition” value was determined as 6.79 ± 0.58%.
